Reference: ChEMBL document CHEMBL5724914, “Linking interpersonal differences in gut microbiota composition and drug biotransformation activity” (2024)

Key:
[1] = (§1) The drug is tested on Z-030 corresponding to mouse gut metagenome with ENA study accession number: PRJEB37062 and ENA sample accession number: ERS12561829 for biotransformation under anaerobic condition. The drug concentrations were measured over 9 timepoints collected between 0 and 24 hours of incubation by liquid-chromatography-coupled mass spectrometry (LC–MS); details: 2 µM
[2] = as §1, with “Z-014” for “Z-030”, “rat” for “mouse”, “ERS12561814” for “ERS12561829”; details: 2 µM
[3] = as §1, with “Z-001” for “Z-030”, “ERS12561801” for “ERS12561829”; details: 2 µM
[4] = human gut metagenome, 24 h, 2 µM
[5] = human gut metagenome, 24 h, 2 µM; remark: listed apart in the source
[6] = human gut metagenome, 24 h, 2 µM; remark: listed apart in the source
[7] = human gut metagenome, 24 h, 2 µM; remark: listed apart in the source
[8] = human gut metagenome, 24 h, 2 µM; remark: listed apart in the source
[9] = human gut metagenome, 24 h, 2 µM; remark: listed apart in the source
[10] = human gut metagenome, 24 h, 2 µM; remark: listed apart in the source
[11] = as §1, with “WLS-073” for “Z-030”, “human” for “mouse”, “ERS12561749” for “ERS12561829”; details: 2 µM
[12] = as §1, with “WLS-370” for “Z-030”, “human” for “mouse”, “ERS12561793” for “ERS12561829”; details: 2 µM
[13] = as §1, with “WLS-052” for “Z-030”, “human” for “mouse”, “ERS12561747” for “ERS12561829”; details: 2 µM
[14] = human gut metagenome, 24 h, 2 µM; remark: listed apart in the source
[15] = human gut metagenome, 24 h, 2 µM; remark: listed apart in the source
[16] = human gut metagenome, 24 h, 2 µM; remark: listed apart in the source
[17] = as §1, with “WLS-310” for “Z-030”, “human” for “mouse”, “ERS12561785” for “ERS12561829”; details: 2 µM
[18] = as §1, with “Z-026” for “Z-030”, “to” for “to mouse gut”, “ERS12561825” for “ERS12561829”; details: 2 µM
[19] = human gut metagenome, 24 h, 2 µM; remark: listed apart in the source
[20] = as §1, with “WLS-077” for “Z-030”, “human” for “mouse”, “ERS12561750” for “ERS12561829”; details: 2 µM
Further: call rule not given here.

Row | Structure (SMILES) | Bacterial Biotransformation [1] | Bacterial Biotransformation [2] | Bacterial Biotransformation [3] | Bacterial Biotransformation [4] | Bacterial Biotransformation [5] | Bacterial Biotransformation [6] | Bacterial Biotransformation [7] | Bacterial Biotransformation [8] | Bacterial Biotransformation [9] | Bacterial Biotransformation [10] | Bacterial Biotransformation [11] | Bacterial Biotransformation [12] | Bacterial Biotransformation [13] | Bacterial Biotransformation [14] | Bacterial Biotransformation [15] | Bacterial Biotransformation [16] | Bacterial Biotransformation [17] | Bacterial Biotransformation [18] | Bacterial Biotransformation [19] | Bacterial Biotransformation [20]
1 | CCCc1nc2c(C)cc(-c3nc4ccccc4n3C)cc2n1Cc1ccc(-c2ccccc2C(=O)O)cc1 | Compound NOT metabolized | Compound metabolized | Compound metabolized | Compound metabolized | Compound metabolized | Compound metabolized | Compound metabolized | Compound metabolized | Compound metabolized | Compound metabolized | Compound metabolized | Compound metabolized | Compound metabolized | Compound metabolized | Compound metabolized | Compound metabolized | Compound metabolized | Compound metabolized | Compound metabolized | Compound metabolized
2 | CCCCC(=O)N(Cc1ccc(-c2ccccc2-c2nnn[nH]2)cc1)[C@H](C(=O)O)C(C)C | Compound NOT metabolized | Compound NOT metabolized | Compound NOT metabolized | Compound metabolized | Compound metabolized | Compound metabolized | Compound metabolized | Compound metabolized | Compound metabolized | Compound metabolized | Compound NOT metabolized | Compound metabolized | Compound metabolized | Compound metabolized | Compound metabolized | Compound metabolized | Compound metabolized | Compound NOT metabolized | Compound metabolized | Compound metabolized
3 | CCC(COC(=O)c1cc(OC)c(OC)c(OC)c1)(c1ccccc1)N(C)C.O=C(O)/C=C\C(=O)O (centres undefined) | Compound NOT metabolized | Compound NOT metabolized | Compound NOT metabolized | Compound metabolized | Compound NOT metabolized | Compound NOT metabolized | Compound metabolized | Compound metabolized | Compound metabolized | Compound NOT metabolized | Compound NOT metabolized | Compound NOT metabolized | Compound NOT metabolized | Compound metabolized | Compound NOT metabolized | Compound NOT metabolized | Compound metabolized | Compound NOT metabolized | Compound metabolized | Compound NOT metabolized
4 | COc1ccc(CCN(C)CCCC(C#N)(c2ccc(OC)c(OC)c2)C(C)C)cc1OC (centres undefined) | Compound NOT metabolized | Compound NOT metabolized | Compound NOT metabolized | Compound NOT metabolized | Compound NOT metabolized | Compound metabolized | Compound metabolized | Compound metabolized | Compound metabolized | Compound NOT metabolized | Compound metabolized | Compound metabolized | Compound NOT metabolized | Compound metabolized | Compound NOT metabolized | Compound metabolized | Compound metabolized | Compound NOT metabolized | Compound metabolized | Compound NOT metabolized
5 | CN1CC(=O)N2[C@H](c3ccc4c(c3)OCO4)c3[nH]c4ccccc4c3C[C@@H]2C1=O | Compound NOT metabolized | Compound NOT metabolized | Compound NOT metabolized | Compound NOT metabolized | Compound NOT metabolized | Compound metabolized | Compound metabolized | Compound metabolized | Compound metabolized | Compound metabolized | Compound NOT metabolized | Compound metabolized | Compound metabolized | Compound metabolized | Compound metabolized | Compound NOT metabolized | Compound metabolized | Compound NOT metabolized | Compound metabolized | Compound metabolized
6 | CC(O)(CS(=O)(=O)c1ccc(F)cc1)C(=O)Nc1ccc(C#N)c(C(F)(F)F)c1 (centres undefined) [BICALUTAMIDE] | Compound NOT metabolized | Compound NOT metabolized | Compound NOT metabolized | Compound NOT metabolized | Compound NOT metabolized | Compound NOT metabolized | Compound NOT metabolized | Compound NOT metabolized | Compound NOT metabolized | Compound NOT metabolized | – | Compound NOT metabolized | Compound NOT metabolized | Compound NOT metabolized | Compound NOT metabolized | Compound NOT metabolized | Compound NOT metabolized | Compound NOT metabolized | Compound NOT metabolized | Compound NOT metabolized
7 | C[C@@H]1C[C@H]2[C@@H]3CCC4=CC(=O)C=C[C@]4(C)[C@@]3(F)[C@@H](O)C[C@]2(C)[C@@]1(O)C(=O)CO [DEXAMETHASONE] | Compound NOT metabolized | Compound NOT metabolized | Compound NOT metabolized | Compound NOT metabolized | Compound NOT metabolized | Compound NOT metabolized | Compound NOT metabolized | Compound NOT metabolized | Compound NOT metabolized | Compound NOT metabolized | Compound NOT metabolized | – | Compound NOT metabolized | Compound NOT metabolized | Compound NOT metabolized | Compound NOT metabolized | Compound metabolized | Compound NOT metabolized | Compound NOT metabolized | Compound NOT metabolized
8 | O=c1[nH]c2ccccc2n1CCCN1CCC(n2c(=O)[nH]c3cc(Cl)ccc32)CC1 [DOMPERIDONE] | Compound NOT metabolized | Compound NOT metabolized | Compound NOT metabolized | Compound NOT metabolized | Compound NOT metabolized | Compound NOT metabolized | Compound NOT metabolized | Compound NOT metabolized | Compound NOT metabolized | – | Compound NOT metabolized | Compound NOT metabolized | Compound NOT metabolized | Compound NOT metabolized | Compound NOT metabolized | Compound NOT metabolized | Compound NOT metabolized | Compound NOT metabolized | – | Compound NOT metabolized
9 | C#C[C@]1(O)CC[C@H]2[C@@H]3CCC4=CC(=O)CC[C@@H]4[C@H]3CC[C@@]21CC [LEVONORGESTREL] | Compound NOT metabolized | Compound metabolized | Compound NOT metabolized | Compound NOT metabolized | Compound metabolized | – | Compound metabolized | Compound metabolized | Compound metabolized | Compound metabolized | Compound NOT metabolized | Compound metabolized | Compound metabolized | Compound metabolized | – | Compound metabolized | Compound metabolized | Compound metabolized | Compound metabolized | Compound metabolized
